US20160022775A1, “TREATING LYSOSOMAL STORAGE DISEASE” (UNIVERSITY OF ROCHESTER, priority 2013, published 2016)
Entries after “also recorded” stand apart in the source; their conditions may differ.

Tests used:
primary OPCs [1] = assay: Screen for protection of OPC division at sublethal concentrations of psychosine; format: cell-based, rat; conditions: psychosine concentrations that suppress division without appreciable death
Description: Experiments were conducted to identify FDA-approved agents that rescue precursor cells of the CNS from the effects of the lipids thought to be toxic in KD, GD and MLD. To identify therapeutic agents that could be candidates for relatively rapid translation to the clinic, candidate agents were screened (based on cellular and molecular analyses) and unbiased drug screens were conducted using the NINDSII library of 1040 compounds approved by the FDA or in clinical trials. The intent of these screens was to discover previously unknown activities of agents for which pharmacokinetic and toxicological information is already available. The initial screening assays used are for (i) protection against OPC death induced by lethal concentrations of toxic lipids (48 hr exposure) and (ii) protection of OPC division induced by exposure to sublethal concentrations of toxic lipids. […]

primary OPCs [2] = assay: Screen for protection against OPC death induced by lethal concentrations of psychosine; format: cell-based, rat; conditions: for rescue of cell survival from psychosine: primary OPCs, lethal psychosine exposure
Description: Experiments were conducted to identify FDA-approved agents that rescue precursor cells of the CNS from the effects of the lipids thought to be toxic in KD, GD and MLD. To identify therapeutic agents that could be candidates for relatively rapid translation to the clinic, candidate agents were screened (based on cellular and molecular analyses) and unbiased drug screens were conducted using the NINDSII library of 1040 compounds approved by the FDA or in clinical trials. The intent of these screens was to discover previously unknown activities of agents for which pharmacokinetic and toxicological information is already available. The initial screening assays used are for (i) protection against OPC death induced by lethal concentrations of toxic lipids (48 hr exposure) and (ii) protection of OPC division induced by exposure to sublethal concentrations of toxic lipids.
In this screen, a library of 1040 compounds, either approved for use or in clinical trials, were examined at three different doses for their ability to protect against psychosine-induced cell death. […]

primary OPCs [3] = assay: Survival of OPCs exposed to toxic lipids (calcein AM / propidium iodide, CELIGO); format: cell-based
Description: Whether toxic lipids have similar effects on the function of oligodendrocyte precursor cells (OPCs, the direct ancestors of myelin-forming oligodendrocytes), due to the common features of myelin breakdown and failure to repair such damage in LSDs, was determined. These experiments all used standard techniques (see Mayer et al. PNAS, 91: 7496-7500 (1994); Ibarrola et al. Dev. Biol. 180: 1-121 (1996); Smith et al. PNAS 97: 10032-10037 (2000); Power et al. Dev. Biol. 245: 362-375 (2002); Dietrich et al. J. Biol. 5: e22 (2006); Li et al. PLoS Biol. 5: e35 (2007)), as adapted to enable rapid automated analysis of microscopy images captured using the CELIGO® imaging system (Brooks Automation, Chelmsford, Mass.). This system enables collection of data using brightfield and three-color fluorescence and provides similar information to be obtained at the single cell level in adherent cell cultures as yielded by flow cytometry. This approach enables quantitatively analysis of 80 different experimental conditions (in triplicate) per hour.
Studies on division and survival of OPCs exposed to 0.1, 0.5, 1, 2, 5 or 10 μM PC, GPS or LS were conducted for 1, 2, 3 or 5 days. These experiments followed standard procedures (see Mayer et al. PNAS, 91: 7496-7500 (1994); Dietrich et al. J. Biol. 5: e22 (2006); and Han et al. J. Biol. 7 (4):12 (2008)) except that cell death was quantified using calcein AM and propidium iodide (PI) labeling of live cultures was used to identify live and dead cells, respectively. […] These dyes effectively overcome the problems with dyes for which cell numbers are inferred from metabolic activity (e.g., MTT, Alamar Blue), and provide quantitative information on cell numbers. Independent confirmation was obtained in all cases by visual examination of cultures. In these, and all other cases, all experiments were repeated at least three times, and all data points were collected in triplicate. All experiments were conducted in conditions of 5% O2, to more closely mimic physiological oxygen concentrations.
The sensitivity of primary OPCs to PC was determined. The sensitivity of the cells to glucopsychosine (GPC) and lysosulfatide (LS) was also examined. […] Thus, OPCs are even more sensitive to PC than oligodendrocytes, which are sensitive at 10 μM psychosine. More critically, they are an order of magnitude more sensitive than indicated by studies described in Zaka et al. (Mol. Cell Neurosci. 30 (3): 398-407 (2005)) on immortalized cell lines.

[4] = tested on: human fetal neuroepithelial stem cells (hNSCs); assay: Sensitivity of human CNS precursor cells to toxic lipids; format: cell-based
twitcher −/− mice = assay: In vivo treatment of twitcher -/- mice (model of Krabbe disease); conditions: for appearance and behavior (films, still images): 24-day-old twi−/− mice
Excerpt: In order to determine whether agents identified in in vitro studies are capable of providing an in vivo benefit, the effects of IGF-1 were examined in twitcher −/− mice, an accepted model of Krabbe disease. The twitcher −/− mice harbor a mutation in galactocerebosidase that mimics Krabbe disease. The strategy for in vivo analyses was to determine whether FDA-approved compounds of potential interest improve neurological symptoms and/or extend survival times of twi−/− mice. These studies used techniques employed in studies on toxicity of chemotherapeutic agents for the CNS (See Dietrich et al. J. Biol. 5 (7): e22 (2006); Han et al. CNS J. Biol. 7: e12 (2008)).
In in vivo experiments, IGF-I was administered daily, beginning 10 days after birth, through i.p. injection (100 μg/kg, which is below dosages used in other studies using peripheral administration (See Aberg et al. J. Neurosci. 20: 2896-2903 (2000)). This time point is earlier than the expression of neurological symptoms but is considerably later than that used in attempts to treat these mice by HSC transplants, enzyme replacement therapy or both combined (See Qin et al. Mol. Genet. Metab. 107: 186-196 (2012)). Mice were evaluated at 24 days of age to enable analysis of cell division in vivo. Comparative analysis after 40 days was not possible due to death of the control (saline-treated) twi−/− mice shortly after 40 days of age.
Drugs are delivered once daily by i.p. administration (using 100 μg/kg, which provide benefit (see FIG. 8). All animals are marked and genotyped within the first week after birth to identify +/+, +/− and −/− pups. Outcome measures such as (i) weight gain, motor activity, rotorod analysis, auditory brainstem response and survival are analyzed.
Mice were sacrificed at Day 25 to examine OPC division in vivo (FIG. 8).

[5] = tested on: primary oligodendrocyte progenitor cells; assay: Protection of OPCs against toxicity of glucopsychosine and lysosulfatide; format: cell-based; conditions: OPC survival
Excerpt: Since lysosomal storage disorders are so rare, there is a strong disincentive to invest heavily in treatments. Therefore, there is a clear need to identify agents that would be of use in the treatment of multiple lysosomal storage disorders. […] Nonetheless, due to the importance of such a goal, the agents that protect against both cell death and suppression of cell division caused by exposure to psychosine were examined in order to determine their potential utility in protection against the toxic effects of glucopsychosine (elevated in Gaucher's disease) and of lysosulfatide (elevated in metachromatic leukodystrophy). These diseases were chosen as they come from two functionally different disease groups as defined by a cellular assay for lysosomal function wherein BODIPY-LacCer uptake is detected.
The ability of agents that protect against psychosine mediated suppression of cell division and cell survival to also protect against the toxicity of glucopsychosine and lysosulfatide was examined.

[6] = tested on: immortalized cell line characterized as an oligodendrocyte progenitor cell line; conditions: Zaka et al.; immortalized cell line, 50 μM psychosine; cited from earlier work
[7] = twi−/− mice, 24 days of age, 100 μg/kg i.p. daily

Molecule: COc1ccc(C(Cl)=C(c2ccc(OC)cc2)c2ccc(OC)cc2)cc1 [chlorotrianisene]
- rescue of cell division from psychosine (primary OPCs [1]): inhibit cell death and reduce suppression of cell division
- rescue of cell division from psychosine (primary OPCs [1]; listed as Chlorotrianisene): rescued both cell survival and cell division
- rescue of cell survival from psychosine (primary OPCs [2]): inhibit cell death and reduce suppression of cell division; also recorded: rescued both cell survival and cell division

Molecule: CC(C)(C)CC(C)(C)c1ccc(O)c(Cc2ccc(Cl)cc2Cl)c1 [clofoctol]
- rescue of cell division from psychosine (primary OPCs [1]): inhibit cell death and reduce suppression of cell division; also recorded: rescued both cell survival and cell division
- rescue of cell survival from psychosine (primary OPCs [2]): inhibit cell death and reduce suppression of cell division; also recorded: rescued both cell survival and cell division

Molecule: C=C[C@@]1(C)CC(=O)[C@]2(O)[C@@]3(C)[C@@H](O)CCC(C)(C)[C@@H]3[C@H](O)[C@H](OC(C)=O)[C@@]2(C)O1 [colforsin]
- rescue of cell division from psychosine (primary OPCs [1]): inhibit cell death and reduce suppression of cell division; also recorded: rescued both cell survival and cell division
- rescue of cell survival from psychosine (primary OPCs [2]): inhibit cell death and reduce suppression of cell division; also recorded: rescued both cell survival and cell division

Molecule: CCCCCCCCCCCCC/C=C/[C@@H](O)C(N)CO[C@@H]1O[C@H](CO)[C@@H](O)[C@H](O)[C@@H]1O (some centres unmarked) [glucopsychosine]
- exposure level as low as which toxic for OPCs (primary OPCs [3]): 3.304
- exposure range toxic for primary OPCs and other primary CNS cells (primary OPCs [3]): low micromolar range
- vulnerability of hNSCs compared with rat OPCs [4]: at least as vulnerable

Molecule: CCCCCCCCCCCCC/C=C/[C@@H](O)[C@@H](N)CO[C@@H]1O[C@H](CO)[C@H](O)[C@H](OS(=O)(=O)O)[C@H]1O [lysosulfatide]
- exposure level as low as which toxic for OPCs (primary OPCs [3]): 3.304
- exposure range toxic for primary OPCs and other primary CNS cells (primary OPCs [3]): low micromolar range

Molecule: CC(C)(C)NCC(O)c1ccccc1Cl (centres unmarked) [tulobuterol]
- rescue of cell division from psychosine (primary OPCs [1]): inhibit cell death and reduce suppression of cell division; also recorded: rescued both cell survival and cell division
- rescue of cell survival from psychosine (primary OPCs [2]): inhibit cell death and reduce suppression of cell division; also recorded: rescued both cell survival and cell division

Molecule: IGF-1: insulin-like growth factor-I, polypeptide
- rescue of cell division from psychosine (primary OPCs [1]): ability to protect both cell division and cell survival; also recorded: rescued both division and survival; also recorded: protects against psychosine mediated suppression of cell division and cell survival; also recorded: inhibit cell death and reduce suppression of cell division; also recorded: Rescue of cell division is also achieved at physiologically relevant dosages
- appearance and behavior (films, still images) (twitcher −/− mice; 100 μg/kg i.p. daily): normal body extension, sleek fur and evidence of extensive locomotor behavior
- appearance and behavior (films, still images) (twitcher −/− mice; 100 μg/kg i.p. daily, listed as IGF-I): essentially normal in appearance
- locomotor activity (velocity of movement, cm/sec) (twitcher −/− mice; [7]): statistically normal locomotor activity
- weight gain (twitcher −/− mice; [7]): normal weight gain
- locomotor activity (velocity of movement, cm/sec) (twitcher −/− mice; twi−/− mice, 24 days of age, 100 μg/kg i.p. daily, listed as IGF-I): restores movement to normal levels
- more dividing OPCs than in saline-treated mice (twitcher −/− mice; twi−/− mice, corpus callosum, Day 25, 100 μg/kg i.p. daily from 10 days after birth): ~45%
- dosage at which beneficial effects on survival are seen (primary OPCs [2]; primary OPCs exposed to psychosine): 10 ng/mL
- rescue of cell survival from psychosine (primary OPCs [2]): ability to protect both cell division and cell survival; also recorded: rescued both division and survival; also recorded: protects against psychosine mediated suppression of cell division and cell survival; also recorded: inhibit cell death and reduce suppression of cell division
- protection against toxicity of glucopsychosine [5]: protects against the toxicity of glucopsychosine and lysosulfatide; also recorded: similarly effective against lysosulfatide and glucopsychosine as it was against psychosine
- protection against toxicity of lysosulfatide ([5]; survival data at 5 days): protects against the toxicity of glucopsychosine and lysosulfatide; also recorded: similarly effective against lysosulfatide and glucopsychosine as it was against psychosine
- dose giving marked protection from psychosine-induced cell death [6]: one
- exposure level giving slight (marginal) reduction of psychosine-induced cell death [6]: 100 ng/mL

Molecule: VEGF
- rescue of cell division from psychosine (primary OPCs [1]): ability to protect both cell division and cell survival; also recorded: inhibit cell death and reduce suppression of cell division
- rescue of cell survival from psychosine (primary OPCs [2]): ability to protect both cell division and cell survival; also recorded: inhibit cell death and reduce suppression of cell division
